Test system: Gram-negative human and animal isolates, including human KAPE pathogens
Test: MIC range over all isolates
Type: cell-based
Conditions: variety of Gram-negative human and animal isolates (discussion)
Protocol: A variety of Gram-negative reference strains (E. coli ATCC 25922, E. coli ATCC 10763, P. aeruginosa PAO1, P. aeruginosa ATCC 27853, A. baumannii ATCC 12457, A. baumannii ATCC 19606, K. pneumoniae ATCC 4352 and K. pneumoniae ATCC 33495) were used for initial screening and combination testing with PMB. The organisms were speciated using biochemical testing and MALDI-TOF mass spectrometry (Bruker, Preston, VIC, Australia). Activity testing of NCL259 and NCL265 was also carried out on 51 extraintestinal clinical E. coli isolates from companion animals, and 83 porcine and bovine enterotoxigenic E. coli (ETEC) isolates from the Australian Centre for Antimicrobial Resistance Ecology collection. […]
MICs for NCL259 and NCL265 (serial two-fold dilutions commencing at 256 µg/mL) were determined (in duplicate) in round bottom 96–well microtitre trays (Sarstedt 82.1582.001), using the broth micro-dilution method recommended by the Clinical and Laboratory Standards Institute (CLSI). […] The MIC for ampicillin against each isolate was determined for each test to serve as an internal quality control. The MICs of isolates were determined by visual reading and using an EnSpire Multimode Plate Reader 2300 at A600nm.

[H]/N=C(\N)NN=C(CCCCCC)c1ccc(Cl)cc1 [NCL265, (E)-2-(1-(4-chlorophenyl)heptylidene)hydrazine-1-carboximidamide]
MIC range: 2 to 32 µg/mL

Reference: publication PMC9598656, “In Vitro Activity of Robenidine Analogues NCL259 and NCL265 against Gram-Negative Pathogens” (Antibiotics, 2022)
